Bridge positions count the residues as written; N and C are the ends. Peptide text beside a SMILES is read from it.
Target: ACA-6701
Experiment: Competitive fluorescence polarization assay (cFP)
Format: binding, human
Experimental: The above described dbFP assay provides binding constants for FITC-labeled peptides and requires on the order of 0.5 mg of purified antibody. The cFP assay provides binding constants for peptides that lack the FITC group and it consumes less antibody, on the order of 10 μg. The cFP assay is modified from that reported in PanVera Applications Guide (1994) PanVera Corporation such that it consumes 50-fold less antibody. Briefly, antibody (ACA 6701) is mixed with trace FITC labeled peptide (CB2*-F) and enough time is allowed for equilibrium to be reached. This was 1 hour for ACA 6701 and CB2*-F. Increasing concentrations of the unlabeled peptide being tested (CB2* or 3B10) are then added to the tube. After each addition, sufficient time, approximately 15 minutes, is allowed for equilibrium to be reached and the mP value was read. […] This Δ(mP) value should be 20 or more mP units to insure reliable results.
As unlabeled (no FITC) peptide (I) is added to inhibit F from binding to R, Y decreases from its maximum value of PH′ to a plateau of PL which should agree with that in Equation 1. These titrations are shown in FIGS. 26 and 27 for displacement of CB2*-F from ACA-6701 by CB2* and 3B10, respectively. The equation describing this titration was derived and is: [formula]
where PL is the same as in Equation 1. […]

CC(C)C[C@@H]1NC(=O)[C@H](CC(C)C)NC(=O)[C@H](CC(C)C)NC(=O)[C@@H](NC(=O)[C@@H]2CCCN2C(=O)CNC(=O)[C@H](C)N)CSSC[C@@H](C(=O)N2CCC[C@H]2C(=O)NCC(=O)O)NC(=O)[C@H](CCCNC(=N)N)NC(=O)[C@H](CC(=O)O)NC(=O)[C@@H]2CCCN2C(=O)[C@H](C)NC1=O [3B10, AGPCLLLAPDRCPG] (H-AGPCLLLAPDRCPG-OH; disulfide 4-12)
Ki (cFP, displacement of CB2*-F from ACA-6701): 313 nM | binding to ACA-6701 less than binding of CB2* (versus CB2*): 9 fold

Source: US20040009904A1, “APL immunoreactive peptides, conjugates thereof and methods of treatment for aPL antibody-mediated pathologies” (priority 1995, published 2004)
